Earlier results, collected in patent US9863006B2, “Selective lysis of cells by ionic surfactants” (Biocartis NV, priority 2011, dated 2018).

Conditions: room temperature

## CCCCCCCCCCCCOS(=O)(=O)[O-].[Na+] [sodium dodecyl sulfate]
  time to cross the membrane: hours or days
